Consider seven molecules from patent publication US20180296537A1, “METHODS AND COMPOSITIONS FOR DIAGNOSING, TREATING, AND MONITORING TREATMENT OF SHANK3 DEFICIENCY ASSOCIATED DISORDERS” (Novartis AG, priority 2015, published 2018).

The test system of one test is CA1 pyramidal neurons. The test can be described thus: Dendritic spine density in hippocampal organotypic slice cultures. It counts as cell-based, mouse. The procedure:
Wilde type (C57B1/6) mice were housed in a temperature-controlled room and maintained on a 12 hr light/dark cycle. Food and water were available ad libitum and experiments were carried out in accordance with the local authorization guidelines for the care and use of laboratory animals. Slice cultures were established according to the procedure described by Stoppini and colleagues (Galimberti et al., 2006; Stoppini et al., 1991). […] For organotypic slice cultures, brains of P6-P9 transgenic mice were dissected in cold MEM (GIBCO) medium, and hippocampal coronal sections of 400 μm were obtained with a tissue chopper (McIlwain). Slices were selected, placed on Millicell (Millipore, PICM03050) and cultured in 6-well dishes at 35° C. and 5% CO2 in the presence of 1 ml of medium. The entire slice isolation procedure took about 30 min. The culture medium was exchanged every third day. Treatments were performed in fresh culture medium for the indicated time periods.
Brain slices were transfected with plasmids encoding shCont, and shShank3 using helios gene gun system (Bio-Rad Laboratories, #165-2431) as previously described (Proenca et al., 2013). Subsequently, slices were fixed, stained, mounted, and analyzed following the protocols described below in the immunohistochemistry and microscopy paragraphs.
Slices were fixed for 10 minutes in 4% PFA, washed in PBS and blocked for 4 hr at room temperature in 0.3% Triton X-100 20% Horse Serum/PBS (blocking solution). GFP primary antibody was incubated for 24 hr at 4° C. in the blocking solution. Afterwards, slices were washed in PBS, incubated for 2 hr in 0.3% Triton X-100/PBS with Alexa Fluor® 488 Donkey anti-chicken secondary antibody (Life technologies). Finally, slices were washed in PBS, incubated 10 minutes with DAPI (Life technologies) and mounted on glass slides using ProLong mountant (Life technologies).
High resolution images were acquired on an upright Zeiss LSM700 confocal microscope, using a Plan-Neofluar 100×/1.3 oil immersion objective. For the analysis of dendritic spine density, confocal 3D stacks were acquired in CA1 region for each experiment. To quantify spine density, a stretch of approximately 30 μm was selected on secondary dendrites originating at the branch point from the primary dendrite. Only secondary dendrites were considered to reduce variability. Dendritic length was measured using the ImageJ plugin, Simple Neurite tracer, and spine density manually counted using the Cell Counter plugin.
The above findings implicate CLK2 overexpression as a specific anomaly that is causative for attenuated Akt activity in neurons deficient for Shank3. Consequently, inhibiting CLK2 activity or directly activating Akt would restore neuronal impairments associated with Shank3 loss of function. First, a small-molecule Akt-activator, SC79, was tested for its ability to restore Akt phosphorylation (FIG. 5A). SC79 binds directly to Akt to facilitate an ‘open’ conformation of the protein that is accessible to upstream activating kinases (eg. PDK1). This obviates the need for PtdIns(3,4,5)P3 (PIP3) production and recruitment of Akt to the plasma membrane (Rodgers, Cell Metab. 11, 23-34, 2010). […] Decreased principal neuron dendritic spine density has frequently been observed in Shank3 loss of function models (Durand et al., 2007, Nature Genetics 39: 25-27; Peca et al., 2011, Nature 472: 437-442; Verpelli et al., 2011, The Journal of Biological Chemistry 286: 34839-34850). Knock-down of Shank3 in hippocampal organotypic slice cultures, via biolistic transfection of shRNA vectors, faithfully recapitulated this phenotype in CA1 pyramidal neurons, whereby a two-fold reduction in apical dendrite spine density resulted (FIG. 6A). […]

Another test relates to CLK2. The test can be described thus: Western blot of CLK2 protein expression in primary neurons. It counts as cell-based, rat. From the text: E18 primary rat cortical neurons were dissected, cultured and infected 6 days after plating (DIV6) with indicated lentiviruses at MOI 10, as previously described (Proenca et al., 2013). Lentiviruses were produced by calcium phosphate transfection of HEK293T cells with packaging plasmids (Life Technologies) and transfer plasmid in 10 cm dishes. Cells were transferred to fresh medium 6 hrs. post-transfection. Four days post-transfection, the cell medium was collected and pooled from several dishes, cleared of cellular debris by 0.45 μm filtration, and concentrated 100× by centrifugation at 19,000 g for 90 min in a Beckman Ultracentrifuge using a SW28/SW32 rotor. Pellets were suspended in PBS/0.5% BSA and viral titer was determined by ELISA quantification of viral p24 antigen (Zeptometrix Corp, USA). For shRNA plasmid generation, oligonucleotides were annealed and ligated into lentiviral transfer plasmid pLKO.1-GFP vector at the AgeI/EcoRI sites. The target sequences of shRNAs that target rat and mouse Shank3 (5′-3′) are: […] (SEQ ID NO: 1), […] (SEQ ID NO: 2), and […] (SEQ ID NO: 3). The latter was previously reported (Verpelli et al., 2011). A luciferase-targeting sequence was used as an shRNA control: […] (SEQ ID NO: 4).
For immunoprecipitation (IP) of HA-tagged Akt, neurons were lysed in IP buffer (20 mM Tris-HCl pH 7.4, 3 mM EDTA, 3 mM EGTA, 150 mM NaCl, 0.5% NP-40, and protease/phosphatase inhibitor cocktails (Roche)). Lysates were cleared by centrifugation at 13,000 rpm for 10 min and lysates normalized for protein abundance were immunoprecipitated with rabbit HA-tag antibody for 1 h at 4° C. Immuno-complexes were then captured by incubation for an additional 1 hr with Protein A agarose beads (Roche). Beads were washed three times with IP buffer and bound proteins were eluted with 2×SDS-PAGE sample buffer, then boiled for 5 min. […]
(In general: In western blotting, separated proteins are transferred to a membrane and probed.)

The next test has as its system Akt. The test can be described thus: Western blot of Akt phosphorylation in rat primary cortical neurons (Shank3 knock down vs control). It counts as cell-based. To be noted: DIV 16. From the text: E18 primary rat cortical neurons were dissected, cultured and infected 6 days after plating (DIV6) with indicated lentiviruses at MOI 10, as previously described (Proenca et al., 2013). Lentiviruses were produced by calcium phosphate transfection of HEK293T cells with packaging plasmids (Life Technologies) and transfer plasmid in 10 cm dishes. Cells were transferred to fresh medium 6 hrs. post-transfection. Four days post-transfection, the cell medium was collected and pooled from several dishes, cleared of cellular debris by 0.45 μm filtration, and concentrated 100× by centrifugation at 19,000 g for 90 min in a Beckman Ultracentrifuge using a SW28/SW32 rotor. Pellets were suspended in PBS/0.5% BSA and viral titer was determined by ELISA quantification of viral p24 antigen (Zeptometrix Corp, USA). For shRNA plasmid generation, oligonucleotides were annealed and ligated into lentiviral transfer plasmid pLKO.1-GFP vector at the AgeI/EcoRI sites. The target sequences of shRNAs that target rat and mouse Shank3 (5′-3′) are: […] […] (SEQ ID NO: 2), and […] (SEQ ID NO: 3). The latter was previously reported (Verpelli et al., 2011). A luciferase-targeting sequence was used as an shRNA control: […] (SEQ ID NO: 4).
For immunoprecipitation (IP) of HA-tagged Akt, neurons were lysed in IP buffer (20 mM Tris-HCl pH 7.4, 3 mM EDTA, 3 mM EGTA, 150 mM NaCl, 0.5% NP-40, and protease/phosphatase inhibitor cocktails (Roche)). Lysates were cleared by centrifugation at 13,000 rpm for 10 min and lysates normalized for protein abundance were immunoprecipitated with rabbit HA-tag antibody for 1 h at 4° C. Immuno-complexes were then captured by incubation for an additional 1 hr with Protein A agarose beads (Roche). Beads were washed three times with IP buffer and bound proteins were eluted with 2×SDS-PAGE sample buffer, then boiled for 5 min. For IP and analysis of ubiquitinated Myc-Clk2, neurons were lysed in Ubiquitin IP buffer (20 mM Tris-HCl pH 7.4, 3 mM EDTA, 3 mM EGTA, 150 mM NaCl, 1% Triton X-100, protease/phosphatase inhibitor cocktails (Roche), 5 mM N-ethylmaleimide, and 3 mM iodoacetamide) containing 1% SDS. Lysates were boiled for 20 min to denature proteins and then centrifuged for 10 min at 13,000 rpm. Lysates were subsequently diluted to 0.1% SDS with Ubiquitin IP buffer and immunoprecipitated with Myc antibody for 1 h. Complexes were then captured by addition of Protein G agarose (Roche) and additional 1 h incubation. Beads were washed 3× and eluted with 2×SDS-PAGE sample buffer, then boiled for 5 min. Samples prepared for SDS-PAGE were then resolved on 4-12% Novex gels (Life Technologies), transferred to PVDF membranes, blocked in 5% low-fat milk in TBS/0.1% Tween-20, and incubated overnight with primary antibodies. After washing and 1 h incubation with secondary antibodies, proteins were visualized by Chemiluminescent detection (Amersham-GE Healthcare Life Sciences).
To determine whether Shank3 deficiency impacts the PI3K-Akt-mTOR signaling pathway (FIG. 1A, gray highlight), lentiviral-mediated delivery of shRNAs was used to knock-down Shank3 in rat primary cortical neuron cultures. Cultured rat primary cortical neurons were transduced with lentiviruses encoding control shRNA or Shank3-shRNA at six days in vitro (DIV 6) and treated with BDNF (50 ng/ml) for 15 or 30 min at 14-16 days in vitro (DIV 14-16). Cell lysates were prepared in RIPA buffer prior to resolution by SDS-PAGE and Western blotting.
Cortical neurons, transduced with shRNA-expressing lentiviruses on DIV 6, were treated with 50 ng/ml BDNF or okadaic acid (100 nM) on DIV 16 and cell lysates were resolved by SDS-PAGE, followed by Western blotting.

The subject of another test is PMDS neurons. To be noted: cited from earlier work.
The next test relates to Shank3 knock-out mice. To be noted: cited from earlier work.
The test system of another test is PMDS patients. The settings on record: pilot studies; cited from earlier work.

Where a SMILES comes first, the peptide text is derived from it. The star is where a group is joined. Cbz = O=C(OCc1ccccc1)*

Take `O=c1[nH]c2ccccc2n1C1CCN(Cc2ccc(-c3nc4cc5[nH]cnc5cc4nc3-c3ccccc3)cc2)CC1` [Akti]: the “effect of TG003 on spine density with Akt inhibitor” value in the test on CA1 pyramidal neurons (Shank3 knock down neurons, 10 μM Akti included in TG003 treatment) is listed as “blocked”. In the test with CA1 pyramidal neurons (Thy1-mGFP transfected slice cultures, 10 μM Akti 24 h, fixed DIV14), the dendritic spine density entry was “sufficient to reduce dendritic spine density”.

As for `CC(C)C[C@@H](C=O)NC(=O)[C@H](CC(C)C)NC(=O)[C@H](CC(C)C)NC(=O)OCc1ccccc1` [MG132] (Cbz-Leu-Leu-Leu-aldehyde), in the test with CLK2 (control cells, 2.5 or 20 μM MG132, 30 minutes), the CLK2 protein level result is recorded as “rapid increase of CLK2 in control cells”. Take `C=C1[C@@H](O)[C@@H]2O[C@]3(CC[C@H](/C=C/[C@@H](C)[C@@H]4CC(C)=C[C@@]5(O[C@H](C[C@@](C)(O)C(=O)O)CC[C@H]5O)O4)O3)CC[C@H]2O[C@@H]1[C@@H](O)C[C@H](C)[C@H]1O[C@@]2(CCCCO2)CC[C@H]1C` [okadaic acid]: in the test with Akt (okadaic acid 100 nM), the “increase of Akt T308 phosphorylation in Shank3 knock down neurons versus increase in control neurons” value is “two-fold greater”. Besides, in the test on Akt (okadaic acid 100 nM, alone or with 50 ng/ml BDNF, control and Shank3 knock down neurons), the “Akt T308 phosphorylation” value was “enhanced Akt T308 phosphorylation in both control and Shank3 knock down neurons”.

Consider IGF-1: insulin-like growth factor-1, for which, in the test on PMDS neurons, the synaptic impairment result is “alleviated”. Further, in the test with CA1 pyramidal neurons (Shank3 knockdown neurons, 1 μg/ml IGF-1 24 h, with or without 10 μM Akti, fixed DIV 14), the dendritic spine density entry is on record as “restored normal dendritic spine density to Shank3 knockdown neurons, in an Akt-dependent manner”. The “synaptic and motor deficits” value in the test with Shank3 knock-out mice is “alleviated synaptic and motor deficits in Shank3 knock-out mice”. Moreover, in the test on PMDS patients, the “motor, cognitive and social impairments” value was “beneficial”. Take insulin: insulin: the “motor, cognitive and social impairments” value with PMDS patients is listed as “beneficial”. With “wild type B56β: Flag-tagged wild type B56β regulatory subunit of PP2A, expressed by lentiviral transduction”, the Akt phosphorylation result with Akt (Shank3 knock down neurons, lentiviral co-expression of Flag-tagged B56β, 50 ng/ml BDNF) is “had no effect”.

B1: BDNF: brain derived neurotrophic factor (protein, UniProt P23560 19-247, looked up)
Neurotrophic factor BDNF …: APMKEANIRGQGGLAYPGVRTHGTLESVNGPKAGSRGLTSLADTFEHVIEELLDEDQKVRPNEENNKDADLYTSRVMLSSQVPLEPPLLFLLEEYKNYLDAANMSMRVRRHSDPARRGELSVCDSISEWVTAADKKTAVDMSGGTVTVLEKVPVSKGQLKQYFYETKCNPMGYTKEGCRGIDKRHWNSQCRTTQSYVRALTMDSKKRIGWRFIRIDTSCVCTLTIKRGR
As to B1, the CLK2 protein level entry in the test on CLK2 (Shank3 knock down neurons, BDNF treatment) is on record as “elicited no significant further increase of CLK2 levels”; with CLK2 (control neurons, BDNF 30 minutes), “induced the accumulation of CLK2 in control neurons”.
